Measurements reported in publication PMC11500415, “Chemical inhibition of stomatal differentiation by perturbation of the master-regulatory bHLH heterodimer via an ACT-Like domain” (Nature Communications, 2024).
Where “and” joins values, the source holds several entries; their conditions need not be identical. Equal values may be shown once. Read-outs that look alike come from different tables or passages of the source.

Key:
SCRM = target: T1, SCRM (Arabidopsis thaliana, UniProt Q9LSE2); assay: BLI direct binding; parameters: species or system A. thaliana
T1 construct: SCRM (1-494); made in house; host or cells: E. coli BL21
T1 sequence (Q9LSE2 1-494): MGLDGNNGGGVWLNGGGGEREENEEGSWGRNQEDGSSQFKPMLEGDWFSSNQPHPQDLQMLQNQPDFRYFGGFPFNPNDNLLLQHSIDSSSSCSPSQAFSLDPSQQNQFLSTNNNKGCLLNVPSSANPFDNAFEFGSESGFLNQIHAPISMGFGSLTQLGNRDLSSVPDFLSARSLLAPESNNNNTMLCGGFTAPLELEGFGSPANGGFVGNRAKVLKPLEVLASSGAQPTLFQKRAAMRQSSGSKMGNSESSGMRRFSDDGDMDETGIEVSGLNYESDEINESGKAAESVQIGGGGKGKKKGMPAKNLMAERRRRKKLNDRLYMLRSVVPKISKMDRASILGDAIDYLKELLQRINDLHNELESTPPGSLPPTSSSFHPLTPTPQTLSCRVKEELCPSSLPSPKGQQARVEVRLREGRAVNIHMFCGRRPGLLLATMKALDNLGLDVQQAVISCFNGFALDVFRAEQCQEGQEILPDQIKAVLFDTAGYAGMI
Source text: (§1) A. thaliana SCRM (1-494), ΔNSPCH (98-364), MUTE (1-202), ΔNFAMA (190-414), MUTEΔC (1-114), MUTER133A_R134A, MUTEE162A_E163A, MUTER133A_R134A_E162A_E163A, SCRM-ACTL (405-494), MUTE-ACTL (114-202), SPCH-ACTL (285-364), FAMA-ACTL (306-414), MUTE_ACTLR133A_R134A, MUTE_ACTLE162A_E163A, MUTE_ACTLR133A_R134A_E162A_E163A were cloned into pGEX-4T-1 vector with an N-terminal GST tag and a thrombin cleavage sequence. For protein expression, the constructs were transformed into E. coli strain BL21. For each transformant, a single colony was selected and incubated in 10 ml LB liquid media. The overnight-incubated E. coli suspensions were transferred to 1 L LB medium and incubated at 37 °C for around 2 h until the OD600 reached 0.4–0.6. The isopropyl β-D-1-thiogalactopyranoside ([…] of final concentration) was added to the cultures and the strains were incubated at 22 °C for a further 18 h. GST-fused proteins were purified using glutathione agarose resin. The soluble portion of the cell lysate was loaded onto a GST-Sepharose column. Nonspecifically bound proteins were removed by washing the column with 20 mM Tris pH 8.0, 200 mM NaCl. The bound GST-fused protein was eluted with 10 mm glutathione and 20 mM Tris pH 8.0, 200 mM NaCl. The GST-fused proteins were exchanged with phosphate-buffered saline buffer, and then the solution was treated with 50 μg of thrombin for 10–12 h at 16 ^οC. The GST portion of the protein was cleaved during thrombin digestion, and then the whole solution was reloaded onto the glutathione S-transferase column to obtain pure protein. The purified proteins were further purified by gel filtration on a Superdex-200 (GE) column using fast protein liquid chromatography and phosphate buffer (pH 7.2) as the eluent. The purity of the protein was checked by SDS-PAGE. For detailed lists of oligo DNA and plasmid information, see Supplementary Tables 5, 6, respectively.
(§2) The binding affinities of SCRM to MUTE / MUTER133A_R134A / MUTEE162A_E163A / MUTER133A_R134A_E162A_E163A in presence and absence of Stomidazolone (3) and its analogues (AYSJ1059 (5) and AYSJ1061 (6)), and Stomidazolone / AYSJ1059 / AYSJ1061 interactions with GST-tagged SCRM, MUTE, SPCH, FAMA, MUTE ΔACTL, MUTE_ACTL, SCRM_ACTL, SPCH_ACTL and FAMA_ACTL, MUTER133A_134A, MUTEE162A_E163A, MUTER133A_R134A_E162A_E163A were measured using the Octet Red96 system (ForteBio, Pall Life Sciences) following the manufacturer’s protocols. The optical probes coated with anti-GST were first loaded with 500 nM GST tagged proteins before kinetic binding analyses. The experiment was performed in 96-well plates maintained at 30 °C. Each well was loaded with 200 μL reaction volume for the experiment. The binding buffer used in these experiments contained 1× PBS supplemented with 2% DMSO, 0.02% Tween20. […] There was no binding of the analytes to the unloaded probes as shown by the control wells. Binding kinetics to all seven concentrations of the analytes were measured simultaneously using default parameters on the instrument. The data were analyzed using the Octet data analysis software. The association and dissociation curves were fit with the 1:1 homogeneous ligand model. The kobs (observed rate constant) values were used to calculate Kd, with steady-state analysis of the direct binding. See Supplementary Table 3 for details.

MUTE = target: T2, MUTE (Arabidopsis thaliana, UniProt Q9M8K6); assay: BLI direct binding; parameters: species or system A. thaliana
T2 construct: MUTE (1-202); made in house; host or cells: E. coli BL21
T2 sequence (Q9M8K6 whole entry): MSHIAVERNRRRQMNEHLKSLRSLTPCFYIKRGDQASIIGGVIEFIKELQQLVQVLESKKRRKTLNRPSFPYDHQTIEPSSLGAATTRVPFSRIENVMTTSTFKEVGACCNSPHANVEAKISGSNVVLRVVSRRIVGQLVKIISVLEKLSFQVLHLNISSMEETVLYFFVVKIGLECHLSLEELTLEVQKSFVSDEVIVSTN
Source text: as §1, §2

O=C1C(c2ccccc2)=NC(NS(=O)(=O)c2ccccc2)(c2ccccc2)N1S(=O)(=O)c1ccccc1 (stereo not shown) [Stomidazolone] gave a Kd (SCRM; BLI steady state, read-out: KD (SS)) of 68.5 ± 5.6 µM, a Kd (SCRM; BLI, read-out: KD) of 65.5 ± 0.6 µM and a Kd (MUTE; BLI steady state, MUTE, read-out: KD (SS)) of 0.0089 ± 0.0012 mM. The “kdis” value (MUTE; MUTE loaded on Anti-GST sensor, fit per sensor, Stomid Conc. 200-3.12, rep-1, rep-2) was 0.0392 s⁻¹ and 0.0391 s⁻¹, the Kd (MUTE; MUTE loaded on Anti-GST sensor, fit per sensor, Stomid Conc. (mM) 200-3.12, rep-1, rep-2, read-out: KD) was 0.00896 mM and 0.00929 mM and 0.00909 mM and 0.0092 mM and 0.00905 mM and 0.00911 mM and 0.0091 mM and 0.00897 mM and 0.00907 mM and 0.00902 mM and 0.00906 mM and the RMax (MUTE; MUTE, Conc. 3.12, rep-1, rep-2) was 0.125 and 0.165. For the same compound, the “Req/Rmax(%)” value (MUTE; MUTE, Conc. 3.12, rep-1, rep-2) was 100%, the Response (MUTE; MUTE, Conc. 3.12, rep-1, rep-2) was 0.1223 and 0.1634 and the RMax (MUTE; MUTE, Conc. 6.25, rep-1, rep-2) was 0.275 and 0.215. The “Req/Rmax(%)” value (MUTE; MUTE, Conc. 6.25, rep-1, rep-2) was 97% and 100%, the Response (MUTE; MUTE, Conc. 6.25, rep-1, rep-2) was 0.2732 and 0.2105 and the RMax (MUTE; MUTE, Conc. 12.5, rep-1, rep-2) was 0.425 and 0.395. The Response (MUTE; MUTE, Conc. 12.5, rep-1, rep-2) was 0.4108 and 0.3912, the RMax (MUTE; MUTE, Conc. 25, rep-1, rep-2) was 0.525 and 0.47 and the Response (MUTE; MUTE, Conc. 25, rep-1, rep-2) was 0.5211 and 0.4645. For the same compound, the RMax (MUTE; MUTE, Conc. 50, rep-1, rep-2) was 0.55 and 0.585, the “Req/Rmax(%)” value (MUTE; MUTE, Conc. 50, rep-1, rep-2) was 89% and the Response (MUTE; MUTE, Conc. 50, rep-1, rep-2) was 0.5313 and 0.5832. For the same compound, the RMax (MUTE; MUTE, Conc. 100, rep-1, rep-2) was 0.605 and 0.635, the Response (MUTE; MUTE, Conc. 100, rep-1, rep-2) was 0.5932 and 0.6302 and the RMax (MUTE; MUTE, Conc. 200, rep-1, rep-2) was 0.615 and 0.645. For the same compound, the “Req/Rmax(%)” value (MUTE; MUTE, Conc. 200, rep-1, rep-2) was 98%, the Response (MUTE; MUTE, Conc. 200, rep-1, rep-2) was 0.606 and 0.634 and the koff (MUTE; read-out: kdis(1/s), MUTE loaded on Anti-GST sensor, fit per sensor, Stomid Conc. 200-3.12, rep-1, rep-2) was 0.0393 s⁻¹. The kon (MUTE; read-out: kon(1/Ms), MUTE loaded on Anti-GST sensor, fit per sensor, Stomid Conc. 200-3.12, rep-1, rep-2) was 4380 M⁻¹ s⁻¹.
